Source: patent US20020183362A1, “2-Fluorobenzenesulfonyl compounds for the treatment of inflammation” (Pharmacia Corporation, priority 2000, published 2002)

Assays:
Human COX-2 [1] = target: T1, Human COX-2 (Homo sapiens, UniProt P35354); test: Assay for COX-1 and COX-2 activity (PGE2 ELISA, recombinant enzyme), COX-2; type: biochemical; settings: Table I; pre-incubated 10-20 minutes, arachidonic acid 10 μM, stopped after ten minutes, pH 8.0
T1 construct: A 2.0 kb fragment containing the coding region of either human or murine COX-1 or human or murine COX-2; made in house; host or cells: SF9 insect cells (baculovirus, transfer vector pVL1393)
T1 sequence (P35354 18-604): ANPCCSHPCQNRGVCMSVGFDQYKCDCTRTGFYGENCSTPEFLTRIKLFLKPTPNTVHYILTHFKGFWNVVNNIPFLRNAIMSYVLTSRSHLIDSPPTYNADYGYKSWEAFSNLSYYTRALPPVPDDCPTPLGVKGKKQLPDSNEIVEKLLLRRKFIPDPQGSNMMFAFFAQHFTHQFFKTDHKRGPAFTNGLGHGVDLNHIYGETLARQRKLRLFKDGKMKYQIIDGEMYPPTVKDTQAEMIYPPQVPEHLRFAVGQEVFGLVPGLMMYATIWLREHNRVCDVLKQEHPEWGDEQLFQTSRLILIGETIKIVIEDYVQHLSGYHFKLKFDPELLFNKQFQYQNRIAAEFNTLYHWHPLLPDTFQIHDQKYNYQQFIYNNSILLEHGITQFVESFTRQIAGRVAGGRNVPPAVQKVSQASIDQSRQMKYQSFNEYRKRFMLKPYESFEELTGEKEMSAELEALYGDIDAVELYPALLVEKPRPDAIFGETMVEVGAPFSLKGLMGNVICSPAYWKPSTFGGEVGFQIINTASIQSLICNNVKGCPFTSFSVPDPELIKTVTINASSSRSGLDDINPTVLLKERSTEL
Description: The COX-2 inhibition activity of the compounds of this invention illustrated in the Examples was determined by the following methods.
(§1) Recombinant COX-1 and COX-2 were prepared as described by Gierse et al, [J. Biochem., 305, 479-84 (1995)]. A 2.0 kb fragment containing the coding region of either human or murine COX-1 or human or murine COX-2 was cloned into a BamH1 site of the baculovirus transfer vector pVL1393 (Invitrogen) to generate the baculovirus transfer vectors for COX-1 and COX-2 in a manner similar to the method of D. R. O'Reilly et al (Baculovirus Expression Vectors: A Laboratory Manual (1992)). Recombinant baculoviruses were isolated by transfecting 4 μg of baculovirus transfer vector DNA into SF9 insect cells (2×10^8) along with 200 ng of linearized baculovirus plasmid DNA by the calcium phosphate method. See M. D. Summers and G. E. Smith, A Manual of Methods for Baculovirus Vectors and Insect Cell Culture Procedures, Texas Agric. Exp. Station Bull. 1555 (1987). Recombinant viruses were purified by three rounds of plaque purification and high titer (10^7-10^8 pfu/mL) stocks of virus were prepared. For large scale production, SF9 insect cells were infected in 10 liter fermentors (0.5×10^6/mL) with the recombinant baculovirus stock such that the multiplicity of infection was 0.1. After 72 hours the cells were centrifuged and the cell pellet homogenized in Tris/Sucrose (50 mM: 25%, pH 8.0) containing 1% 3-[(3-cholamidopropyl)dimethylammonio]-1-propanesulfonate (CHAPS). The homogenate was centrifuged at 10,000×G for 30 minutes, and the resultant supernatant was stored at −80° C. before being assayed for COX activity.
(§2) COX activity was assayed as PGE2 formed/μg protein/time using an ELISA to detect the prostaglandin released. CHAPS-solubilized insect cell membranes containing the appropriate COX enzyme were incubated in a potassium phosphate buffer (50 mM, pH 8.0) containing epinephrine, phenol, and heme with the addition of arachidonic acid (10 μM). Compounds were pre-incubated with the enzyme for 10-20 minutes prior to the addition of arachidonic acid. Any reaction between the arachidonic acid and the enzyme was stopped after ten minutes at 37° C./room temperature by transferring 40 μl of reaction mix into 160 μELISA buffer and 25 μM indomethacin. The PGE2 formed was measured by standard ELISA technology (Cayman Chemical).

Human COX-1 [2] = target: T2, Human COX-1 (Homo sapiens, UniProt P23219); test: Assay for COX-1 and COX-2 activity (PGE2 ELISA, recombinant enzyme), COX-1; type: biochemical; settings: Table I; pre-incubated 10-20 minutes, arachidonic acid 10 μM, stopped after ten minutes, pH 8.0
T2 construct: A 2.0 kb fragment containing the coding region of either human or murine COX-1 or human or murine COX-2; made in house; host or cells: SF9 insect cells (baculovirus, transfer vector pVL1393)
Description: as §1, with “Recombinant” for “Recombinant COX-1 and COX-2 were prepared as described by Gierse et al, [J. Biochem., 305, 479-84 (1995)]. A 2.0 kb fragment containing the coding region of either human or murine COX-1 or human or murine COX-2 was cloned into a BamH1 site of the baculovirus transfer vector pVL1393 (Invitrogen) to generate the baculovirus transfer vectors for COX-1 and COX-2 in a manner similar to the method of D. R. O'Reilly et al (Baculovirus Expression Vectors: A Laboratory Manual (1992)). Recombinant”, “1555 (1987).” left out
as §2, with “Any reaction between the arachidonic acid and the enzyme was stopped after ten minutes at 37° C./room temperature by transferring 40 μl of reaction mix into 160 μELISA buffer and 25 μM indomethacin.” left out

Human COX-2 [3] = target: T1, Human COX-2; test: Fast assay for COX-1 and COX-2 activity (PGE2 ELISA), COX-2; type: biochemical; settings: Table II, pre-incubated 10 minutes at 25° C., arachidonic acid 10 μM, stopped after two minutes, pH 7.5
Description: as §1
(§3) COX activity was assayed as PGE2 formed/μg protein/time using an ELISA to detect the prostaglandin released. CHAPS-solubilized insect cell membranes containing the appropriate COX enzyme were incubated in a potassium phosphate buffer (0.05 M Potassium phosphate, pH 7.5, 2 μM phenol, 1 μM heme, 300 μM epinephrine) with the addition of 20 μl of 100 μM arachidonic acid (10 μM). Compounds were pre-incubated with the enzyme for 10 minutes at 25° C. prior to the addition of arachidonic acid. Any reaction between the arachidonic acid and the enzyme was stopped after two minutes at 37° C./room temperature by transferring 40 μl of reaction mix into 160 μl ELISA buffer and 25 μM indomethacin. The PGE2 formed was measured by standard ELISA technology (Cayman Chemical).

Human COX-1 [4] = target: T2, Human COX-1; test: Fast assay for COX-1 and COX-2 activity (PGE2 ELISA), COX-1; type: biochemical; settings: Table II, pre-incubated 10 minutes at 25° C., arachidonic acid 10 μM, stopped after two minutes, pH 7.5
Description: as §1, with “Recombinant” for “Recombinant COX-1 and COX-2 were prepared as described by Gierse et al, [J. Biochem., 305, 479-84 (1995)]. A 2.0 kb fragment containing the coding region of either human or murine COX-1 or human or murine COX-2 was cloned into a BamH1 site of the baculovirus transfer vector pVL1393 (Invitrogen) to generate the baculovirus transfer vectors for COX-1 and COX-2 in a manner similar to the method of D. R. O'Reilly et al (Baculovirus Expression Vectors: A Laboratory Manual (1992)). Recombinant”, “1555 (1987).” left out
as §3, with “Any reaction between the arachidonic acid and the enzyme was stopped after two minutes at 37° C./room temperature by transferring 40 μl of reaction mix into 160 μl ELISA buffer and 25 μM indomethacin.” left out

T2 sequence (P23219 24-599): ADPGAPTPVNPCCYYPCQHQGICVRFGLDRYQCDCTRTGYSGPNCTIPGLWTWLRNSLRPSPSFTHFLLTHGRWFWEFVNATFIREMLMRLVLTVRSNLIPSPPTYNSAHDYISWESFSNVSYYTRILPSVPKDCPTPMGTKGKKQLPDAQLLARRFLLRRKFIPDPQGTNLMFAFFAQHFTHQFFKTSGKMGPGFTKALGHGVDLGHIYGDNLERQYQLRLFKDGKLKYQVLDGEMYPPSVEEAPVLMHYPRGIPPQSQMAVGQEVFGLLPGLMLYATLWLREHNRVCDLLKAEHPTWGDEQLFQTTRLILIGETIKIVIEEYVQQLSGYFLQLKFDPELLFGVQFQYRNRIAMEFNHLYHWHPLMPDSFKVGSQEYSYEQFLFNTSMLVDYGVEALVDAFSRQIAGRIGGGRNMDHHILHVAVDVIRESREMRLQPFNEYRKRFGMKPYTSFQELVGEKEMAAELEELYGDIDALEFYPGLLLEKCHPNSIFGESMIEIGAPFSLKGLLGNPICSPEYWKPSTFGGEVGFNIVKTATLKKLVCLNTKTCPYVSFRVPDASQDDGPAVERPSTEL

| SMILES | IC50 (Human COX-2 [1]) [µM] | IC50 (Human COX-1 [2]) [µM] | IC50 (Human COX-2 [3]) [µM] | IC50 (Human COX-1 [4]) [µM] | melting point [°C] |
| --- | --- | --- | --- | --- | --- |
| CS(=O)(=O)c1ccc(-c2cc(C(F)(F)F)nn2-c2ccc(C#N)cc2)cc1F [Example 16, 4-[5-[3-Fluoro-4-(methylsulfonyl)Phenyl]-3-(trifluoromethyl)-1H-Pyrazol-1-yl]benzonitrile] | 0.25 | > 100 | 0.87 | > 100 | 152 to 153 |
| Cc1cccc(-n2nc(C(F)(F)F)cc2-c2ccc(S(C)(=O)=O)c(F)c2)c1 [Example 17, 5-[3-Fluoro-4-(methylsulfonyl)phenyl]-1-(3-methylphenyl)-3-(trifluoromethyl)-1H-pyrazole] | 1.05 | > 100 | 0.027 | 4.36 | 129 to 130 |
| Cc1onc(-c2ccc(F)cc2)c1-c1ccc(S(N)(=O)=O)c(F)c1 [Example 22, 2-Fluoro-4-[3-(4-fluorophenyl)-5-methyl-4-isoxazolyl]-benzenesulfonamide] | 0.015 | > 100 | 0.005 | > 100 | 176 to 177 |
| CS(=O)(=O)c1ccc(C2=C(c3ccccc3)C(=O)OC2)cc1F [Example 24] | 15.9 | > 100 | 3.73 | > 100 | 161 to 162 |
